Reference: patent US4632922A, “Oxomorpholinyl dimer and rescue of anthracycline and mitomycin C damage” (The United States of America as represented by the …, priority 1985, dated 1986)

Assay: Kinetics of reaction of DHM3 with daunorubicin in water solvent
Experimental: A test similar to that described for the same reaction in methanol solvent (vide supra) was run. Oxomorpholinyl dimer DHM3 (1.38 mg, 4.37×10^-3 mmol) was dissolved in 0.5 ml of oxygen-free methanol and quickly transferred without delay into one compartment of the cell. The solvent was promptly removed under vacuum. Daunorubicin hydrochloride ([…]) was dissolved in 100 ml of an aqueous solution of Tris (24.2 mg) and Tris hydrochloride (31.6 mg) and 2.6 ml of this solution (4.18×10^-4 mmol of 6) was introduced into the other compartment of the cell. The sample was freeze-thaw degassed over three cycles as described above, sealed, and placed in a thermostatted cell holder at 10.0±0.1° C. for about 20 min prior to mixing. Full spectra between 320 and 800 nm were recorded every 10 sec for the first 125 sec, and then every 20 sec. From the absorbance change at 620 nm over the first 85 sec (50% reaction of daunorubicin), a non-linear least-squares treatment gave a first order rate constant for bond homolysis of DHM3 (k1) equal to 6×10^-4 sec^-1 and a first order rate constant for destruction of 7 (k2) equal to 2×10^-2 sec^-1. Treatment of the data obtained in the 164-225 sec interval gave k2 =2.8×10^-2 sec^-1.
Thus, when a ten-fold excess of DHM3 is reacted with an oxygen-free 2×10^-4 M solution of 6 in buffered water (pH8) at 10° C., the absorbance of the solution at 618-620 nm, due to the tautomer 7, reaches its maximum after 125 sec and then decreases quickly, with an 80% decrease in 100 sec. Here again the formation and destruction of 7, as calculated from the data obtained in the first 85 sec of reaction, follows consecutive first order kinetics, first order in DHM3 and 7, with k1 =6×10^-4 sec^-1, k2 =2×10^-2 sec^-1 and ε7 =9600. Calculation of k2 from the absorbance data taken after 165 sec of reaction time, when only first order destruction of 7 is observed, gives a value of 2.8×10^-2 sec^-1.

**Q.** With `CC1(CO)COC(=O)C(C)(C2(C)NC(C)(CO)COC2=O)N1` (centres unmarked) [DHM3, bi(3,5-dimethyl-5-hydroxymethyl-2-oxomorpholin-3-yl)] as the molecule, how does the “reactivity with daunorubicin compared with TM-3” value (DHM3 in water vs TM-3 in methanol) read?
**A.** approximately the same reactivity

**Q.** And the “first order rate constant for bond homolysis of DHM3 (k1)” value (buffered water (pH8), 10.0±0.1° C., first 85 sec)?
**A.** 0.0006 s⁻¹
